Test results: patent US11771647B2, “Eye drops in form of solution comprising benzopyran derivative or pharmaceutically acceptable salt thereof” (HANLIM PHARMACEUTICAL CO., LTD., priority 2018, dated 2023)

Legend:
[1] = Manufacturability / solubilization of HL217 eye drop solution (appearance); assay type: physicochemical; settings: pH 6.5
Protocol: That is, according to the components and amounts shown in Table 1, HL217, polyethylene glycol 400, glycerin, EDTA, and boric acid were added to the sterile purified water under stirring. The pH was adjusted to 6.5 with an aqueous hydrochloric acid solution and/or an aqueous sodium hydroxide solution; and then sterile purified water was added to the solution, so as to adjust the final volume. The amounts in Table 1 represent the amount of each component per 1 mL of the total volume.
Since the maximum allowable concentration of the U.S. Food and Drug Administration for polyethylene glycol 400 is 50 mg/ml in an eye drop formulation, the amount of polyethylene glycol 400 was adjusted to 1/10 (i.e., 15.0 mg) and correspondingly the amount of glycerin was also adjusted to 1/10 (i.e., 12.0 mg) for evaluating the solubilization of HL217. […] Specifically, according to the components and amounts shown in Table 2, HL217, polyethylene glycol 400, glycerin, EDTA, and boric acid were added to the sterile purified water under stirring. The pH was adjusted to 4.5 with an aqueous hydrochloric acid solution and/or an aqueous sodium hydroxide solution; and then sterile purified water was added to the solution, so as to adjust the final volume. The amounts in Table 2 represent the amount of each component per 1 mL of the total volume. […]

[2] = tested on: mice with very low-density lipoprotein receptor (vldlr) gene knockout; test: Inhibitory efficacy against vascular leakage in animal model of macular degeneration (FIG. 1); assay type: in vivo; settings: single intravitreal administration of 1 μl (50 ng/μl ranibizumab) in each eye
Protocol: Lucentis™ injection (Norvatis, Basel, Switzerland) was used as a positive control.
The control group was instilled with 1 drop of sterile physiological saline, in each eye of normal mice (n=8), twice daily for 3 weeks. The AMD-induced group was instilled with 1 drop of sterile physiological saline, in each eye of mice with vldlr gene knockout (vldlr −/− mice), twice daily for 3 weeks. The positive control group received 1 μl of Lucentis™ injection (containing 50 ng/μl of ranibizumab) in each eye of vldlr −/− mice, by a single intravitreal administration using a Hamiltion syringe (Hamilton company, Reno, NV, USA).
The following experiments were carried out In order to evaluate any abnormality of retinal blood vessels, such as angiogenesis formation and abnormal blood vessel permeability. […] The isolated retina was placed on a slide, dropped with an aqueous mounting medium (Fluoromount™, Sigma, St. Louis, MO, USA) and then observed under a fluorescence microscope. For quantitative analysis of tracer dye, blood was collected from the heart 10 minutes after the dye injection, perfused with sterile PBS to remove residual dye from the blood vessels, and then the eyes were extracted to isolate the retina. The isolated retina was homogenized with 100 μL of PBS and then centrifuged to obtain the supernatant, in which the amount of FITC-dextran was then measured using a spectrofluorophotometer. […]

## COC(OC)[C@]1(C)Oc2ccc(N)cc2[C@H](N(Cc2ncc[nH]2)c2ccc(Cl)cc2)[C@H]1O [HL217, (2R,3R,4S)-6-amino-4-[N-(4-chlorophenyl)-N-(1H-imidazol-2-ylmethyl)amino]-3-hydroxy-2-methyl-2-dimethoxymethyl-3,4-dihydro-2H-1-benzopyran]
[1]
  Appearance: precipitates were generated

B1: Lucentis™ injection: Lucentis™ injection (Norvatis) containing 50 ng/μl of ranibizumab, used as a positive control (antibody, chains of the INN, looked up, V domains shown)
VH: EVQLVESGGGLVQPGGSLRLSCAASGYDFTHYGMNWVRQAPGKGLEWVGWINTYTGEPTYAADFKRRFTFSLDTSKSTAYLQMNSLRAEDTAVYYCAKYPYYYGTSHWYFDVWGQGTLVTVSS
VL: DIQLTQSPSSLSASVGDRVTITCSASQDISNYLNWYQQKPGKAPKVLIYFTSSLHSGVPSRFSGSGSGTDFTLTISSLQPEDFATYYCQQYSTVPWTFGQGTKVEIK
[2]
  efficacy (vascular leakage and pathogenic angiogenesis): significant efficacy only at the 2nd week
